Experimental data reported in PubChem BioAssay AID179 (DTP/NCI, 2004).
Calls of active or inactive are those of the source.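 Rule for the calls: active = compounds giving half or more protection of infected cells from virus-caused growth loss, again on retest; inactive = the rest.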

Test system: CEM cells HIV-1 protection, formazan growth assay
Assay: NCI AIDS Antiviral Assay
Settings: for IC50: measured here: growth of uninfected CEM cells
Outline: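 Human CEM cells, uninfected and HIV-1-infected, exposed to five drug concentrations; growth measured by soluble formazan assay and scored as percent protection from infection, with protecting compounds retested.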

Structure (SMILES)	EC50	IC50	outcome
C=C(C)[C@@H]1CC[C@]2(COC(=O)CC3(CC(=O)O)CCCC3)CC[C@]3(C)[C@H](CC[C@@H]4[C@@]5(C)CC[C@H](OC(=O)CC6(CC(=O)O)CCCC6)C(C)(C)[C@@H]5CC[C@]43C)[C@@H]12	> 200 µM	5.89 µM	
CC(=O)OCCCOCn1c(Cc2ccccc2)c(C)c(=O)[nH]c1=O	100 µM	> 200 µM	
COc1ccc(C2(CC(C)C)CCN(S(=O)(=O)c3ccc(C)cc3)C2)cc1OC (stereo unspecified)	> 178 µM	20 µM	
BrCc1ccc(C[P+](c2ccccc2)(c2ccccc2)c2ccccc2)cc1	> 200 µM	3.89 µM	
N#CNC(=NCc1ccccc1)NCc1ccccc1	200 µM	339 µM	
O=[N+]([O-])c1ccc2[nH]c(=S)n(/C=C(/c3ccc(Cl)cc3)S(=O)(=O)Cc3ccc(Cl)cc3)c2c1	> 200 µM	102 µM	
O=c1/c(=C/c2c(O)ccc3ccccc23)sc2nc3ccccc3n12			inactive
CCN1C(=O)c2cc(OC)c(OC)cc2C(=O)C12OC(=O)c1cc3c(cc12)OCO3 (stereo unspecified)	> 200 µM	93.3 µM	
Cc1ccc(Sc2ccccc2N)cc1	> 178 µM	51.3 µM	
CCC(O)(COC(N)=O)c1ccccc1 (stereo unspecified)	> 200 µM	> 200 µM	
CC(C)(O)[C@@H]1CC[C@@]2(C)CCC[C@H](O)[C@H]2C1			inactive
COC(=O)C1=COC(C)C2CN3CCC4(C(=O)Nc5ccccc54)C3CC12 (stereo unspecified)			inactive
COc1ccc2c(c1)[n+]([O-])c(-c1ccc([N+](=O)[O-])cc1)c(N)[n+]2[O-]			inactive
N.N.O=C([O-])P(=O)([O-])[O-].[Na+].[Pt+4]	> 4170 µM	155 µM	
COc1cc(C(c2c(O)c3ccccc3oc2=O)c2c(O)c3ccccc3oc2=O)ccc1O	> 200 µM	56.2 µM	
O=C(CN1CCN(Cc2ccccc2)CC1)N1CCCn2c1nc1ccccc1c2=O	> 200 µM	> 200 µM	
Cc1cccc2c1c(=O)c1c(O)cc(O)cc1n2C	> 200 µM	> 200 µM	
CCOC1=NC(C(F)(F)F)(C(F)(F)F)N=C(/N=C(/N)N(C)C(C(C)C)P(=O)(OC(C)C)OC(C)C)O1 (stereo unspecified)	> 200 µM	31.6 µM	
CN(C)N=Nc1cccc(C(N)=O)c1	> 646 µM	145 µM	
COC(=O)c1cc2c(C(=O)OC)cc1CSCc1cccc(c1)CSC2	> 200 µM	> 200 µM	
CCOC(=O)C(=Cc1cccc([N+](=O)[O-])c1)C(=O)OCC	> 89.1 µM	8.91 µM	
Cc1nccc2c(C)c3sc4ccccc4c3cc12	> 91.2 µM	2.14 µM	

Structure (SMILES)	EC50	IC50	outcome
CCc1ccccc1C(C(=O)NC1CN2CCC1CC2)c1ccsc1 (stereo unspecified)	> 200 µM	61.7 µM	
Cc1ccc(SC2C(C)(C)N(C(C)C)P2(=O)N(C(C)C)C(C)C)cc1 (stereo unspecified)	> 9.77 µM	> 9.77 µM	
Cc1cc(NC(=O)Nc2ccc(F)cc2)no1	> 200 µM	> 200 µM	
S=C1Cc2c(-c3ccccc3)cc(-c3ccc(Cl)cc3)nc2-c2ccccc2N1	> 200 µM	3.39 µM	
NC(=O)NNC(=O)c1nc[nH]c1[N+](=O)[O-]	> 200 µM	> 200 µM	
O=C1c2c(ccc3c2CCCC3)CC12Cc1ccccc1C2	> 200 µM	22.4 µM	
CC(C)(C)C1CCC2c3c([nH]c4ccccc34)C3C(=O)N(c4ccccc4)C(=O)C3C2C1 (stereo unspecified)			inactive
C=CCNc1nc(C#N)c(N)s1	> 200 µM	> 200 µM	
O=C1CCC2(c3ccc(Cl)cc3)Nc3ccccc3N12 (stereo unspecified)			inactive
O=C1C(=O)N(c2ccc(Cl)cc2)C(=O)C(=Nc2cccc3c(=O)[nH][nH]c(=O)c23)C1c1nc2ccccc2o1 (stereo unspecified)			inactive
COc1ccc(N=NC(=O)NC(CC(C)C)C(N)=O)cc1 (stereo unspecified)	> 200 µM	3.39 µM	
O=C(/C=C/c1ccc(Cl)c(Cl)c1)Oc1ccc(/C=C2\CCCCC2=O)cc1	> 100 µM	5.25 µM	
COc1ccc2c(c1)C(N)=C(c1ccccc1)C2=O	> 200 µM	75.9 µM	
COc1ccc(N2C(=Nc3ccccc3)SC(=N/S(=O)(=O)c3ccccc3)/C2=N\S(=O)(=O)c2ccccc2)cc1	> 200 µM	11.7 µM	
O=S(=O)(SCCCCSS(=O)(=O)c1ccc(Cl)cc1)c1ccc(Cl)cc1	8.13 µM	9.55 µM	
COc1cc2c(cc1OC)CN1CCCc3cc(OC)c(OC)cc3C1C2 (stereo unspecified)	> 200 µM	32.4 µM	
O=C(O)COc1ccc(C(=O)/C(SS/C(C(=O)c2ccc(OCC(=O)O)c(Cl)c2Cl)=C2\C=C(c3ccc(Cl)cc3)SS2)=C2/C=C(c3ccc(Cl)cc3)SS2)c(Cl)c1Cl			inactive
COc1ccc(/C(=N/O)c2ccccc2-c2nc3ccccc3c(=O)n2-c2ccc(S(=O)(=O)Nc3nccs3)cc2)cc1C	> 50.1 µM	> 50.1 µM	
CC(=O)c1c(-c2ccc(O)cc2)oc2cc(O)ccc12	> 347 µM	63.1 µM	
Cn1c(=O)c(N=Nc2c(=O)n(C)c(=O)n3c2[nH]c2ccccc23)c2[nH]c3ccccc3n2c1=O	> 33.9 µM	> 33.9 µM	
CCC(C#N)(c1ccccc1)N(CCc1ccccc1)C(=O)c1ccccc1 (stereo unspecified)	> 200 µM	191 µM	
C=CCCCN1CCCCC1=S	> 251 µM	> 251 µM	

Structure (SMILES)	EC50	IC50	outcome
CC(CCNC(=O)c1ccccc1)(CCNC(=O)c1ccccc1)[N+](=O)[O-]	> 200 µM	> 200 µM	
c1ccc2nc3c(nc2c1)sc1nc2ccccc2n13	> 200 µM	> 200 µM	
Cc1nc2c(nc1C)C(=O)C(N(C)C)=CC2=O			inactive
COc1cc(Nc2cc(Cl)cc(Cl)c2)nc(N)n1	> 200 µM	27.5 µM	
COc1ccc(-n2nc3c(N)nnc-3nc2-c2ccccc2)cc1	> 4.07 µM	> 4.07 µM	
CC(=O)NC1c2ccccc2C(C)(C)C12CCC1(CC2)OCCO1 (stereo unspecified)	> 200 µM	> 200 µM	
CNC1C(OC2C(OC3C(O)C(O)C(N=C(N)N)C(O)C3N=C(N)N)OC(C)C2(O)/C=N/NC(N)=S)OC(CO)C(O)C1O (stereo unspecified)			inactive
COC1/C=C\OC2(C)Oc3c(C)c(O)c4c(O)c(c(/C=N/N(Cc5ccccc5)C56CC7CC(CC(C7)C5)C6)c(O)c4c3C2=O)NC(=O)/C(C)=C\C=C\C(C)C(O)C(C)C(O)C(C)C(OC(C)=O)C1C (stereo unspecified)	> 200 µM	6.92 µM	
S=C1NC2(CCCCC2)NC12CCCCC2	> 200 µM	> 200 µM	
O=C1C=Cc2noc3cccc1c23			inactive
OCCN1CCN(CC/C=C2/c3ccccc3Sc3ccc(Cl)cc32)CC1	> 200 µM	7.41 µM	
CC(=O)Nc1ccc(NC(=O)c2cccc3c(Nc4ccc(S(=O)(=O)Nc5cc(C)on5)cc4)c4ccccc4nc23)cc1	> 200 µM	23.4 µM	
COc1nc(NC2OC(CO)C(O)C2O)cc(=O)n1C (stereo unspecified)			inactive
O=C1C2C=CC1C1C(=O)OC(=O)C21 (stereo unspecified)			inactive
CC(C)(C)c1cc(Oc2ccc(C#N)c(C#N)c2)cc(C(C)(C)C)c1	> 40.7 µM	> 40.7 µM	
CCCCn1c(C)c(C(=O)OCC)c2cc(OCc3ccc(C(=O)Nn4c(C)ccc4C)cc3)c(Br)cc21	> 95.5 µM	> 95.5 µM	
CC(=O)NC(C)(C)C			inactive
CC(C)c1cccc(C(C)C)c1NC(=O)C(=O)C1SC(=S)NC1=O (stereo unspecified)	> 692 µM	> 692 µM	
CCOC(=O)/C(=C/c1ccco1)C(=O)c1ccccc1	> 132 µM	77.6 µM	
Cc1nn(-c2ccccc2)c(CC(Cc2c([N+](=O)[O-])c(C)nn2-c2ccccc2)c2ccccc2)c1[N+](=O)[O-]	> 10 µM	> 10 µM	
CCCOc1nc(N)c2cnn(C3CCCCO3)c2n1 (stereo unspecified)	> 912 µM	550 µM	
CN1N=C(c2ccncc2)OC1c1ccc(Cl)cc1Cl (stereo unspecified)	> 200 µM	85.1 µM	

Structure (SMILES)	EC50	IC50	outcome
O=C(C(/C=N/C(=S)NC1C(=O)Nc2ccccc21)=C(/O)c1ccccc1)c1ccccc1 (stereo unspecified)	> 200 µM	41.7 µM	
Cc1nc2c(c(=O)[nH]1)C1CCCCCCCN1C(=S)N2C (stereo unspecified)	> 200 µM	132 µM	
NC(=S)N/N=C1/C(=O)N(c2ccc(Cl)cc2Cl)C(=O)C(=O)C1c1nc2ccccc2s1 (stereo unspecified)	> 72.4 µM	> 72.4 µM	
CCCCCCCCCCCCCCCC[N+](C)(C)CCCS(=O)(=O)[O-]			inactive
C/C(=N/OCCC(=O)O)C1CC1	> 1450 µM	> 1450 µM	
COC(C)(C)[C@@H]1CCCN1C1=C(C)C(=O)OC1	> 200 µM	> 200 µM	
COc1cc(/C=N/NC2=NCCN2)ccc1O	> 200 µM	> 200 µM	
NC(N)=NCCCC(Nc1c2ccccc2nc2ccccc12)C(=O)O (stereo unspecified)			inactive
NC1=NN(c2ccccc2)C(=O)C1C(=O)C(=O)Nc1ccccc1 (stereo unspecified)			inactive
COc1ccccc1/C=C(\NC(=O)c1ccccc1)C(=O)NC(C)C	> 200 µM	> 200 µM	
N/N=C1\C(=O)N(C2CCCCC2)C(=O)C1C(=O)NC1CCCCC1 (stereo unspecified)			inactive
N#Cc1ccc(Nc2cnc3ccc(N)cc3n2)cc1	> 10.5 µM	> 10.5 µM	
COc1cc(CC2c3cc(OC)c(OC)cc3CCN2C)ccc1O (stereo unspecified)	> 380 µM	138 µM	
Cc1ccc(SCC(OCn2cnc3c(Cl)nc(N)nc32)[C@H](C)F)cc1 (stereo partly specified)	> 200 µM	24 µM	
CC1=CC2OC3CC(OC(=O)/C=C/C=C/C(OCCC4=CC(=O)OC4)C(C)O)C(C)(C2(CO)CC1)C31CO1 (stereo unspecified)	> 67.6 µM	1.51 µM	
Cc1ncc([N+](=O)[O-])n1CCNC(=O)Cn1c([N+](=O)[O-])cnc1C	> 200 µM	> 200 µM	
CCOCc1cc(=O)c2c(O)cc3c(c2o1)CCC(C)(C)O3			inactive
O=C1C(Cl)N(c2cccc(Cl)c2)C1c1c[nH]c2ccccc12 (stereo unspecified)	> 282 µM	102 µM	
COC1(C)C=NCC(C)(C)NC(=O)C(C)(OC)C=NCC(C)(C)NC1=O (stereo unspecified)	> 14.1 µM	> 14.1 µM	
O=C(N/N=C/c1ccco1)c1cccnc1	> 200 µM	> 200 µM	
CC(C(=O)O)/C(=C\c1ccc2c(c1)OCO2)C(=O)O (stereo unspecified)			inactive
CC(=O)OC1[C@@H]2[C@@H](COC(c3c(F)cccc3Cl)N2OC(C)=O)O[C@H]1n1ccc(=O)[nH]c1=O (stereo partly specified)	> 200 µM	115 µM	
